According to article PMC8244818 (Journal of medicinal chemistry, 2021):

Key:
Plasmodium yoelii = type: in vivo; conditions: P. yoelii, CF1 mice, oral gavage in PEG-400, 5 mg/kg × 4 days
[1] = ref 34 (2), ref 35 (6); cited from earlier work
[2] = cited from earlier work

| SMILES | in vivo %parasitemia reduction on day 5 at 5 mg/kg/4d (Plasmodium yoelii) | antimicrobial activity [1] | cytotoxicity activity [2] |
| --- | --- | --- | --- |
| COC1=CC2=N/C1=C\NCC/C=C/CCCCCCCCc1ccc2[nH]1.Cl [(E/Z)-7, geometric isomers of Tambjamine MYP1] | ineffective |  |  |
| CCCCCc1cc(/C=C2\N=C(c3ccc(Cc4ccc(O)cc4)[nH]3)C=C2OC)[nH]c1C.Cl [Compound 2, 4-((4’-Methoxy-5’-((5-methyl-4-pentyl-1H-pyrrol-2-yl)methylene)-1H,5’H-[2,2’-bipyrrol]-5-yl)methyl)phenol] | did not show efficacy | good | good |
| CCCCc1cc(/C=C2\N=C(c3ccc(Cc4ccc(O)cc4)[nH]3)C=C2OC)[nH]c1C.Cl [Compound 3, 4-((5’-((4-Butyl-5-methyl-1H-pyrrol-2-yl)methylene)-4’-methoxy-1H,5’H-[2,2’-bipyrrol]-5-yl)methyl)phenol] | did not show efficacy |  |  |
| COC1=CC(c2ccc[nH]2)=N/C1=C\c1cc(CCCCC(C)C)c(C)[nH]1.Cl [Compound 6, Isoheptylprodigiosin] |  | moderate |  |
| C=CCCCCCCCCc1ccc(C2=N/C(=C\NCCC=C)C(OC)=C2)[nH]1.Cl [Compound 39, N-((5-(dec-9-en-1-yl)-4’-methoxy-1H,5’H-[2,2’-bipyrrol]-5’-ylidene)methyl)but-3-en-1-amine] | ineffective |  |  |
